Laboratory results as given in ChEMBL document CHEMBL3885861, “Open TG-GATES”.

Species: Rattus norvegicus
Assay: Open TG-GATES - Regimen: Daily Repeat
Format: toxicity, organism-based, Sprague-Dawley
Design: regimen Daily Repeat, gender Male, age 6 weeks
Conditions: in vivo, po, 0 mg/kg, route gavage, dose level Control; for APTT / Bas / Eos / Fbg / Hb / Ht / Lym / MCH / MCHC / MCV / Mono / Neu / Plat / RBC / Ret / WBC: tissue Blood; for KIDNEY_L / KIDNEY_R / KIDNEY_TOTAL: tissue Kidney; for ALP / ALT / AST / BUN / CRE / DBIL / GLC / IP / K / LDH / Na / PL / RALB / TBIL / TC / TG / TP / gamma-GTP: tissue Plasma

## CN(C)CCC=C1c2ccccc2COc2ccccc21 [DOXEPIN]
72 h, time 3 day
  TERMINAL_BW: 226.4 g
  APTT: 17.1 s
  Bas: 0%
  Eos: 1%
  Fbg: 281.6 mg/dL
  Hb: 13.4 g/dL
  Ht: 38.6%
  Lym: 78.6%
  MCH: 21.4 pg
  MCHC: 34.7%
  MCV: 61.7 fL
  Mono: 2.8%
  Neu: 17%
  Plat: 122.6 x10_4/uL
  RBC: 625.6 x10_4/ul
  Ret: 7.8%
  WBC: 81.7 x10_2/uL
  KIDNEY_L: 1 g
  KIDNEY_R: 1 g
  KIDNEY_TOTAL: 2 g
  ALP: 1760.6 IU/L
  ALT: 46 IU/L
  AST: 71.2 IU/L
  BUN: 15.6 mg/dL
  CRE: 0.2 mg/dL
  DBIL: 0.018 mg/dL
  GLC: 192 mg/dL
  IP: 8 mg/dL
  K: 4.3 meq/L
  LDH: 71.8 IU/L
  Na: 140.8 meq/L
  PL: 143 mg/dL
  RALB: 2.7 g/dL
  TBIL: 0.036 mg/dL
  TC: 79.6 mg/dL
  TG: 91.2 mg/dL
  TP: 5.7 g/dL
  gamma-GTP: 1.4 IU/L
[…], time 7 day
  TERMINAL_BW: 255.5 g
  APTT: 15.9 s
  Bas: 0.2%
  Eos: 1%
  Fbg: 293.2 mg/dL
  Hb: 13.5 g/dL
  Ht: 38.5%
  Lym: 75.4%
  MCH: 21.1 pg
  MCHC: 35.1%
  MCV: 60 fL
  Mono: 3.6%
  Neu: 19%
  Plat: 116.5 x10_4/uL
  RBC: 641.8 x10_4/ul
  Ret: 5.2%
  WBC: 81 x10_2/uL
  KIDNEY_L: 1.1 g
  KIDNEY_R: 1.1 g
  KIDNEY_TOTAL: 2.2 g
  ALP: 1795.6 IU/L
  ALT: 46 IU/L
  AST: 74.4 IU/L
  BUN: 18.8 mg/dL
  CRE: 0.2 mg/dL
  DBIL: 0.018 mg/dL
  GLC: 186.4 mg/dL
  IP: 7 mg/dL
  K: 4.2 meq/L
  LDH: 67.2 IU/L
  Na: 141.4 meq/L
  PL: 154 mg/dL
  RALB: 2.7 g/dL
  TBIL: 0.03 mg/dL
  TC: 85 mg/dL
  TG: 112.2 mg/dL
  TP: 5.8 g/dL
  gamma-GTP: 1.6 IU/L
[…], time 14 day
  TERMINAL_BW: 310.4 g
  APTT: 16.8 s
  Bas: 0%
  Eos: 0.8%
  Fbg: 280.2 mg/dL
  Hb: 14 g/dL
  Ht: 40.1%
  Lym: 77.2%
  MCH: 21.3 pg
  MCHC: 34.8%
  MCV: 61.1 fL
  Mono: 2.8%
  Neu: 18.4%
  Plat: 116.1 x10_4/uL
  RBC: 657.4 x10_4/ul
  Ret: 4.8%
  WBC: 103.9 x10_2/uL
  KIDNEY_L: 1.2 g
  KIDNEY_R: 1.2 g
  KIDNEY_TOTAL: 2.4 g
  ALP: 1467 IU/L
  ALT: 42.8 IU/L
  AST: 67.4 IU/L
  BUN: 18 mg/dL
  CRE: 0.2 mg/dL
  DBIL: 0.014 mg/dL
  GLC: 191.6 mg/dL
  IP: 7 mg/dL
  K: 4.1 meq/L
  LDH: 65.6 IU/L
  Na: 143.4 meq/L
  PL: 157 mg/dL
  RALB: 2.7 g/dL
  TBIL: 0.024 mg/dL
  TC: 77.4 mg/dL
  TG: 172.8 mg/dL
  TP: 6 g/dL
  gamma-GTP: 1 IU/L
[…], time 28 day
  TERMINAL_BW: 419.8 g
  APTT: 16.6 s
  Bas: 0%
  Eos: 1.2%
  Fbg: 278.6 mg/dL
  Hb: 14.7 g/dL
  Ht: 41.9%
  Lym: 74.6%
  MCH: 20.2 pg
  MCHC: 35.3%
  MCV: 57.3 fL
  Mono: 3%
  Neu: 20.8%
  Plat: 102.4 x10_4/uL
  RBC: 731.6 x10_4/ul
  Ret: 3%
  WBC: 78.6 x10_2/uL
  KIDNEY_L: 1.4 g
  KIDNEY_R: 1.4 g
  KIDNEY_TOTAL: 2.7 g
  ALP: 1293.8 IU/L
  ALT: 43.6 IU/L
  AST: 65.4 IU/L
  BUN: 17.2 mg/dL
  CRE: 0.2 mg/dL
  DBIL: 0.024 mg/dL
  GLC: 180.8 mg/dL
  IP: 6.3 mg/dL
  K: 3.9 meq/L
  LDH: 59.6 IU/L
  Na: 143.4 meq/L
  PL: 166 mg/dL
  RALB: 2.9 g/dL
  TBIL: 0.034 mg/dL
  TC: 80.2 mg/dL
  TG: 212.2 mg/dL
  TP: 6.4 g/dL
